Results taken from ChEMBL document CHEMBL2074129 (J Clin Invest, 1995).

What was measured:
[1] = molecular target: ATP-dependent translocase ABCB1 (Mus musculus, UniProt P21447); assay: TP_TRANSPORTER: transepithelial transport (basal to apical) in mdr1a-expressing LLC-PK1 cell; type: functional, cell-based; conditions: pig
[2] = molecular target: ATP-dependent translocase ABCB1 (Homo sapiens, UniProt P08183); assay: TP_TRANSPORTER: transepithelial transport (basal to apical) in MDR1-expressing LLC-PK1 cells; type: functional, cell-based; conditions: pig
Sequence of ATP-dependent translocase ABCB1 (Homo sapiens, UniProt P08183) (P08183 whole entry): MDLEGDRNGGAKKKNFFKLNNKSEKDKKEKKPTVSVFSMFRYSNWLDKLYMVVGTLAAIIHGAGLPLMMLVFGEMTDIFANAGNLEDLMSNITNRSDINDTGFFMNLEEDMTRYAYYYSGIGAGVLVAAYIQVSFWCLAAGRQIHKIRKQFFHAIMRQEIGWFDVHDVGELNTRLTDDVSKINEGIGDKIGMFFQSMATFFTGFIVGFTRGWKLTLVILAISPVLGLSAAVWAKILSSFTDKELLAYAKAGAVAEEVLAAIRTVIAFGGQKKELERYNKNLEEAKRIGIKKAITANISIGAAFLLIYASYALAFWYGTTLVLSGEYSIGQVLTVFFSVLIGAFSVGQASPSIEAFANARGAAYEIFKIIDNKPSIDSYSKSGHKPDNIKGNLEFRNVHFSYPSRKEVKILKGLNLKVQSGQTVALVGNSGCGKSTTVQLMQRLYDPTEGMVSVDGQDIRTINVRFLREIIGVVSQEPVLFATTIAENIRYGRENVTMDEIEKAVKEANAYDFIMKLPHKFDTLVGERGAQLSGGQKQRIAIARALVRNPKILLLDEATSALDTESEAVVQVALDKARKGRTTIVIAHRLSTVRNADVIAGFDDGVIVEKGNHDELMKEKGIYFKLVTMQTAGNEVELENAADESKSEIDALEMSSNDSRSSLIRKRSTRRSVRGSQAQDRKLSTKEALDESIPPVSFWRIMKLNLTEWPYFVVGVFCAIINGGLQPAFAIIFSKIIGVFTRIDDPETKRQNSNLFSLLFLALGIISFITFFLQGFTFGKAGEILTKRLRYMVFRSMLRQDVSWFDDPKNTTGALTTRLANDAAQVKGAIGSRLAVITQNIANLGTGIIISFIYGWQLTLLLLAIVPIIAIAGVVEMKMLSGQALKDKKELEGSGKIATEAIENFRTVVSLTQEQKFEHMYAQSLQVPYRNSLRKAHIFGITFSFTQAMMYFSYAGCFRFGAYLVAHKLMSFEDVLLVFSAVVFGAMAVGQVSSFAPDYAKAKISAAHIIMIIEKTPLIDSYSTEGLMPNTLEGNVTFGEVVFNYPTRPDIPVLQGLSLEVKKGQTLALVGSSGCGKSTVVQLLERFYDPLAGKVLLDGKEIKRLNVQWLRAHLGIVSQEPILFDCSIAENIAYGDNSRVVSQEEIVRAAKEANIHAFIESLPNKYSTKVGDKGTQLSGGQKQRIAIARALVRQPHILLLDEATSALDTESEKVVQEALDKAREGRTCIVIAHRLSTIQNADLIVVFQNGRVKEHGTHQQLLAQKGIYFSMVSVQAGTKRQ

Sequence of ATP-dependent translocase ABCB1 (Mus musculus, UniProt P21447) (P21447 whole entry): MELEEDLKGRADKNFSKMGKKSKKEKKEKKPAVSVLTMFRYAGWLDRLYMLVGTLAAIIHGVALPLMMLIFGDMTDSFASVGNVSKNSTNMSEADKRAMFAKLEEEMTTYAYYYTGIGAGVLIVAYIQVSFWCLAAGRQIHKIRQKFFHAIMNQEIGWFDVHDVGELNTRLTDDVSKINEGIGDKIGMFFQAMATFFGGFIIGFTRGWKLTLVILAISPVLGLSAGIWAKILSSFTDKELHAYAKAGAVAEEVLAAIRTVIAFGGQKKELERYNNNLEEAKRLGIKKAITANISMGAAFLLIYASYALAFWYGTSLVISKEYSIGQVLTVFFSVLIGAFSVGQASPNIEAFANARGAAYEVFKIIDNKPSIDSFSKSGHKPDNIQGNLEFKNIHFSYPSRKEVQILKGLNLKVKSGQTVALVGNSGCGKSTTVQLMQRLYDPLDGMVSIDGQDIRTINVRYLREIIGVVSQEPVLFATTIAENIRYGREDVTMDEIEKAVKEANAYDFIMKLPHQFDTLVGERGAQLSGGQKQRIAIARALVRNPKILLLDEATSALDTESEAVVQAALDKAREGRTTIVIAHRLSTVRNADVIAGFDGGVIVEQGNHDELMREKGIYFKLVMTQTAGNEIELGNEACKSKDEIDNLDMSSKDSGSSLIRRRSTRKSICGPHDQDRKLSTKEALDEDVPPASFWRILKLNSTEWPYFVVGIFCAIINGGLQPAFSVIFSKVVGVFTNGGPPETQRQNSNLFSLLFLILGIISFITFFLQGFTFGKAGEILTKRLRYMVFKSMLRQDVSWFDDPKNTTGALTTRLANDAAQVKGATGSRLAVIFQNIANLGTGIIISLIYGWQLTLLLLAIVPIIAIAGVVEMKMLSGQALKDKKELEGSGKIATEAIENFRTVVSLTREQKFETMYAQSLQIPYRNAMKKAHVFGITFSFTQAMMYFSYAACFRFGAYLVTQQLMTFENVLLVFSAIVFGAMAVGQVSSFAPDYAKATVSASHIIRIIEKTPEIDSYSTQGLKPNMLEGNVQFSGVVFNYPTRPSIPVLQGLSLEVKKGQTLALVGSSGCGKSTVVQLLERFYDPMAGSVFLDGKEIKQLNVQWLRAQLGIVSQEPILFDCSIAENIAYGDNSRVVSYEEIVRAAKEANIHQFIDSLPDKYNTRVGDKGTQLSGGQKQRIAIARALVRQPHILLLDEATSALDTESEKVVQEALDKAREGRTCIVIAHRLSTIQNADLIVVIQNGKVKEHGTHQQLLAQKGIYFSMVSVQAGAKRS

Molecule	Activity [1]	Activity [2]
CN1CC[C@]23c4c5ccc(O)c4O[C@H]2[C@@H](O)C=C[C@H]3[C@H]1C5 [MORPHINE]	substrate [+]	
C[C@@H]1C[C@H]2[C@@H]3CCC4=CC(=O)C=C[C@]4(C)[C@@]3(F)[C@@H](O)C[C@]2(C)[C@@]1(O)C(=O)CO [DEXAMETHASONE]	substrate [+]	substrate [+]
IVERMECTIN	substrate [+]	substrate [+]
